Patent publication US8895502B2, “β2-glycoprotein I peptide inhibitors” (Kansas State University Research Foundation, priority 2010, dated 2014)
Square brackets hold non-standard residues; d marks the D form.

Columns and labels:
C57Bl/6 mice [1] = test: Intestinal ischemia/reperfusion, mucosal injury score; format: in vivo, mouse; details: C57Bl/6 mice, peptide 40 μM i.v. 5 min prior to ischemia, 2 hours reperfusion
Procedure: (§1) C57Bl/6 and Rag-1^−/− mice were subjected to ischemia followed by reperfusion similar to previously described studies (Moses, T. et al., J. Leukoc. Biol. 86:971-980 (2009)). Briefly, ketamine (16 mg/kg) and xylazine (80 mg/kg) were used to anesthetize the mice. Buprenorphine (0.06 mg/kg) was then administered for pain. A midline laparotomy was performed to expose the abdominal cavity of the mice, which were then allowed to equilibrate for 30 min. Body temperature was maintained at 37° C. using a water-circulating heat pad. Placing a warm, saline moistened piece of gauze over the abdominal cavity prevented peritoneal desiccation. […] Ischemia was noted by the intestine changing from a pink color to a gray color. After 30 min of ischemia, the clamp was removed and the intestines were allowed to reperfuse for 5, 10, 15, or 120 min. […] Mice treated with the various β2-GPI peptides underwent the same procedure with i.v. administration of the peptides (40 μM) 5 min prior to artery occlusion. Peptides 296, 305, and 296Cys to Ser were dissolved in N. Saline (0.9% NaCl) and injected i.v. in 100-μL volumes. Peptides 100 and 181 were dissolved in DMSO prior to diluting 1/100 in N. Saline. Additional mice received peptides prior to Sham treatment.
Immediately after euthanasia, a 2-cm mid jejunum tissue section was immediately fixed in 10% buffered formalin, embedded in paraffin, and 8 μm sections were cut transversely and hematoxylin and eosin (H&E) stained. Mucosal injury was graded on a six-tiered scale, as described previously (Fleming, S. D. et al., J. Immunol. 169:2126-2133 (2002)). Briefly, the average damage score of the intestinal section (75-150 villi) was determined after grading each villus. […] Photomicrographs were obtained from H&E stained slides using a 20×, 0.5 Plan Fluor objective on a Nikon 80i microscope and images acquired at room temperature using a Nikon DS-5M camera with DS-L2 software.
Ischemia/reperfusion was performed on ketamine/xylazine anesthetized mice as described in Example 1 above. After 2 hours of reperfusion, the mice were euthanized and sera, liver, spleen, and 2 cm sections of the small intestine, approximately 10 cm distal to the gastroduodenal junction, were collected for histological and other analyses. Mice treated with the various β2-GPI peptides underwent the same procedure with i.v. administration of the peptides. Most studies assumed 2 mL total blood volume in a mouse and administered peptides to a final concentration of 40 μM at 5 min prior to ischemia. Dose response studies administered 1-40 μM peptide at 5 min prior to ischemia and time course studies administered 40 μM peptide at 5 min prior to ischemia, and at 15-, 30- or 60-min post-ischemia (i.e., during reperfusion).
After euthanasia, tissue sections were fixed and stained following the procedures outlined in Example 1. Mucosal injury (SMI) was also graded on a six-tiered scale, as described in Example 1.

LTB4 = test: Intestinal IR, ex vivo LTB4 generation; format: in vivo, mouse; details: C57Bl/6 mice, peptide 40 μM prior to IR
Procedure: as §1
(§2) Ex vivo generation of eicosanoids by mid-jejunal tissue was determined. Immediately after collection, a 2-cm intestinal section from each mouse was minced, washed, resuspended in 37° C. oxygenated Tyrode's buffer (Sigma-Aldrich; St. Louis, Mo.), incubated at 37° C. for 20 minutes, and the supernatant collected. PGE2 and LTB4 concentrations were determined using enzyme immunoassay kits (Cayman Chemical; Ann Arbor, Mich.). IL-6 and IL-12 concentrations were determined using a Milliplex MAP immunoassay kit (Millipore) and read on a Milliplex Analyzer (Millipore). All eicosanoid and cytokine concentrations were standardized to the total tissue protein content.
(§3) Total peroxidase, LTB4, PGE2, IL-6, IL-12p40, and IL-12p70 concentrations were determined using the procedures described in Example 1.

C3 = test: Intestinal IR, C3 deposition immunohistochemistry; format: in vivo, mouse; details: C57Bl/6 mice, peptide infused prior to IR
Procedure: as §1
After euthanasia, an additional 2-cm intestinal section from each mouse was immediately snap frozen in O.C.T. freezing medium and 8 μm sections were placed on slides for immunohistochemistry. The C3 deposition and F4/80 expression on the tissue sections were detected by staining with a purified rat-anti-mouse C3 (Hycult Biotechnologies; Plymouth Meeting, Pa.) or F4/80 (eBioscience; San Diego, Calif.) antibody followed by a Texas-red conjugated donkey-anti-rat IgG secondary antibody (Jackson Immunoresearch). CD31 (PECAM-1) and CD106 (VCAM-1) were detected by FITC conjugated rat anti-mouse CD31 or CD106 (Biolegend; San Diego, Calif.) antibodies. Each experiment contained serial sections stained with the appropriate isotype control antibodies. All slides were mounted with ProLong Gold (Invitrogen). Images were obtained at room temperature using a Nikon Eclipse 80i microscope equipped with a CoolSnap CF camera (Photometrics) and analyzed using Metavue software (Molecular Devices). The fluorescence was semi-quantitated using Image J software (NIH) using the fluorescent area fraction after setting threshold for each experiment. The average of the isotype control was subtracted from each photo.

PGE2 = test: Intestinal IR, ex vivo PGE2 generation; format: in vivo, mouse; details: C57Bl/6 mice, peptide 40 μM prior to IR
Procedure: C57Bl/6 and Rag-1^−/− mice were subjected to ischemia followed by reperfusion similar to previously described studies (Moses, T. et al., J. Leukoc. Biol. 86:971-980 (2009)). Briefly, ketamine (16 mg/kg) and xylazine (80 mg/kg) were used to anesthetize the mice. Buprenorphine (0.06 mg/kg) was then administered for pain. A midline laparotomy was performed to expose the abdominal cavity of the mice, which were then allowed to equilibrate for 30 min. Body temperature was maintained at 37° C. using a water-circulating heat pad. Placing a warm, saline moistened piece of gauze over the abdominal cavity prevented peritoneal desiccation. […] Ischemia was noted by the intestine changing from a pink color to a gray color. After 30 min of ischemia, the clamp was removed and the intestines were allowed to reperfuse for 5, 10, 15, or 120 min. […] Peptides 296, 305, and 296Cys to Ser were dissolved in N. Saline (0.9% NaCl) and injected i.v. in 100-μL volumes. Peptides 100 and 181 were dissolved in DMSO prior to diluting 1/100 in N. Saline. Additional mice received peptides prior to Sham treatment.
as §2, §3

[2] = system: thioglycollate-elicited macrophages, nitric oxide; test: β2-GPI stimulated macrophage nitric oxide production; format: cell-based; details: mouse β2-GPI 10 μg/mL, peptide 40 μM, 18 hours
Procedure: C57Bl/6 mice were injected i.p. with 1 mL thioglycollate (4%) 4 days prior to peritoneal lavage. Peritoneal exudate macrophages or the B cell line, LK35.2, were seeded at 2×10^6 cells/mL in 24-well or 96-well plates. After macrophage adherence, both cell types were treated with mouse β2-GPI (10 μg/mL) with or without peptide (40 μM). Additional cells were unstimulated as a negative control or stimulated with 10 μg/mL LPS (E. coli 055B5) as a positive control. Supernatants were collected 18-20 hours after stimulation and analyzed for nitrite by Griess reagent (Hoffman & Fleming, Cell Biochem. Funct. 28:686-694 (2010)) or IL-6 by Milliplex MAP kit (Millipore) following the manufacturer's instructions using a Luminex 200 with xPONENT 3.1 and Analyst software (Millipore).

C57Bl/6 mice [3] = test: Intestinal ischemia/reperfusion, mucosal injury score; format: in vivo, mouse; details: Example 3, human β2-GPI in N. saline at 0.5-μg, 1-μg and 5-μg

Molecule	IR-induced intestinal mucosal damage (injury score) (C57Bl/6 mice [1])	IR-induced intestinal LTB4 production (LTB4)	C3 deposition / complement activation after IR (C3)	IR-induced intestinal PGE2 production (PGE2)	β2-GPI-induced nitric oxide production [2]	IR-induced intestinal injury (C57Bl/6 mice [3])
H-GNDTVMCTEQQN-NH2 [peptide 181, 17, reference compound]	IR-induced intestinal damage similar to untreated mice	–	–	–	–	–
H-SHAEVTYSS-OH (H-[dS][dH][dA][dE][dV][dT][dY][dS][dS]-OH; also: retro-inverso) [peptide Retro-inverso D-p9, 13]	attenuated	attenuated	few to no C3 deposits	attenuated	–	–
H-SKNKEKK-NH2 [peptide p7, 11]	attenuate actual epithelial injury more effectively	–	–	returned PGE2 concentrations to those found in Sham treated animals	–	–
H-SSYTVEAHS-NH2 [peptide p9, 12]	attenuated	attenuated	significantly less deposition	attenuated	significantly attenuated	–
H-SSYTVEAHS-OH (H-[dS][dS][dY][dT][dV][dE][dA][dH][dS]-OH; SMILES CC(C)[C@@H](NC(=O)[C@H](NC(=O)[C@@H](Cc1ccc(O)cc1)NC(=O)[C@@H](CO)NC(=O)[C@H](N)CO)[C@H](C)O)C(=O)N[C@H](CCC(=O)O)C(=O)N[C@H](C)C(=O)N[C@H](Cc1c[nH]cn1)C(=O)N[C@H](CO)C(=O)O) [peptide D-p9, p9 synthesized with D-amino acids]	attenuated	did not	–	attenuated	–	–
human β2-GPI: commercially-available human β2-GPI (SEQ ID NO. 15), whole molecule (protein, listed as Homo sapiens) MISPVLILFSSFLCHVAIAGRTCPKPDDLPFSTVVPLKTFYEPGEEITYSCKPGYVSRGGMRKFICPLTGLWPINTLKCTPRVCPFAGILENGAVRYTTFEYPNTISFSCNTGFYLNGADSAKCTEEGKWSPELPVCAPIICPPPSIPTFATLRVYKPSAGNNSLYRDTAVFECLPQHAMFGNDTITCTTHGNWTKLPECREVKCPFPSRPDNGFVNYPAKPTLYYKDKATFGCHDGYSLDGPEEIECTKLGNWSAMPSCKASCKVPVKKATVVYQGERVKIQEKFKNGMLHGDKVSFFCKNKEKKCSYTEDAQCIDGTIEVPKCFKEHSSLAFWKTDASDVKPC	–	–	–	–	–	effective at attenuating
